In data set [1] the test system is cigarette smoke-induced cell accumulation and biomarkers in murine BALF. Briefly: Cigarette smoke model. It is filed as in vivo, A/J mice. The method, then: A/J mice (males, 5 weeks old) were exposed to cigarette smoke (4% cigarette smoke, diluted with compressed air) for 30 min/day for 11 days using a Tobacco Smoke Inhalation Experiment System for small animals (Model SIS-CS; Sibata Scientific Technology, Tokyo, Japan). Test substances were administered once daily for 3 days after the final cigarette smoke exposure (intra-nasal dose comprising 35 μL of solution in 50% DMSO/isotonic saline).
At 12 hr after administration of the last dose, animals were anesthetized, the trachea was cannulated and bronchial alveolar lavage (BAL) was carried out by the instillation into and then withdawal from the lungs, of PBS (100 mL/kg). Total cell numbers in the BALF samples were measured using a haemocytometer under a phase-contrast microscope. The proportions of alveolar macrophages and neutrophils were determined by FACS analysis using anti-mouse MOMA2-FITC (macrophage) or anti-mouse 7/4 (neutrophil).
Cells were suspended in PBS and were incubated with anti-MOMA2-FITC (2 μg/mL, Catalogue no SM065F, Acris Antibodies GmbH, Herford, Germany) or anti-7/4-FITC (2 μg/mL, Catalogue no CL050F, Acris Antibodies GmbH, Herford, Germany) for 30 min at 30° C., and also counterstained with propidium iodide (2 μg/mL) to allow exclusion of necrotic cells. The cells were washed with PBS, and transferred to FACS tubes. Samples was set in a flow cytometer (ALTRA II; Beckman Coulter Japan, Tokyo, Japan), and a single-parameter FL2 [PMT2] (FITC) histogram with log x-axis was plotted to illustrate relative intensity of FITC.
Data files are stored for subsequent analysis using Kaluza analysis software (ver. 1.2) to calculate the proportion of each cell type. The levels of CXCL1(KC), MCP1, TNFα, IL-17 or osteopontin in BALF were determined using Quentikine® mouse KC, MCP1, TNFα, IL-17 or osteopontin ELISA kit (R&D systems, Inc., Minneapolis, Minn., USA). The presence of malondialdehyde was measured using OxiSelect® TBARS Assay Kit (MDA Quantitation; Cell Biolabs Inc, San Diego, Calif., USA).

Another data set concerns IFNγ-primed U937 cells. Briefly: Superoxide anion production assay (zymosan-induced ROS). It is filed as cell-based. The note with it: Homo sapiens, U-937; read-out: REC50, Zymosan-induced ROS production in IFNγ-primed U937 cells. The method, then: As a means of assessing PI3Kδ dependent cell function, superoxide anion production in IFNγ-primed U937 cells was evaluated by a chemiluminescence assay. The U937 cells (purchased from ATCC, Manassas, Va.) were maintained in RPMI 1640 (Invitrogen Ltd., Paisley, UK) with 10% FCS at 37° C. The cells were suspended at a density of 10^7cells/mL in 40 mL 10% FCS RPMI 1640, and treated with 20 μL of 100 μg/mL IFNγ solution (final concentration: 50 ng/mL), and incubated at 37° C., 5% CO2 for 4 days.
IFNγ-primed U937 cells were seeded at 0.2×10^6 cells/well in a 96-well plate, and pre-incubated with test compounds for 2 hr in starvation media (0.5% FCS RPMI1640-phenol red free). Zymosan A (10 mg) from Saccharomyses cerevisiae (ex Sigma-Aldlich) was resuspended in 1 mL of 150 mM NaCl and boiled at 100° C. for 15 min. After boiling, Zymosan particles were washed with 1 mL of PBS twice, and incubated with 0.5 mL of BioParticles™ opsonized reagents (Life technologies) for 60 min at 37° C. […] Chemiluminescence indicating released superoxide anion was measured every 15 min up to 60 min by luminometric measurement (Varioskan® Flash, Thermo-Fisher Scientific).
The data at 60 min after incubation was used for analysis. […] The relative EC50 values were calculated from the concentration-response curves generated by the serial dilutions of the test compounds using XL-Fit (idbs, Guildford, UK).

The test system of another data set is THP1 cells. Briefly: Chemotaxis to MCP1. Type of data set: cell-based. The conditions noted are these: Homo sapiens, THP-1; read-out: REC50, THP1 cell chemotaxis to MCP1. The method, then:
As a means of assessing PI3K γ dependent cell function, THP1 cell chemotaxis to MCP-1 was evaluated using a 48 well-chemotaxis chamber. THP1 cells from a human leukemic monocyte lymphoma cell line, (purchased from ATCC Manassas, Va.) were maintained in RPMI 1640 (Invitrogen Ltd., Paisley, UK) with 10% FCS at 37° C. Cells were re-suspended in 0.5% BSA/RPM11640 (2×10^6 cells/mL) and incubated for 10 min at 37° C., 5% CO2. Cell suspension aliquots (500 μL) were then treated either with compounds in neat DMSO or with DMSO as vehicle (2.5 μL) for 1hr (37° C., 5% CO2).
MCP1 (50 nM) was prepared in 0.5% BSA/RPM11640. MCP1 solution (50 μL) was added to each well in the bottom plate of a 48-well chemotaxis chamber (AP48, NeuroProbe Inc., Gaithersburg, Md.). A polycarbonate membrane (8 μm) was mounted on the bottom chamber, and then the top plate was mounted on the bottom chamber and filter membrane. […]
A solution of MTT (50 μL) in 10% FCS phenol red-free RPM11640 was added to each well, and the plate was incubated for 2 hr (37° C., 5% CO2). Neat DMSO (100 μL) was added to each well to extract formazan formed from MTT and the plates were shaken lightly for 1 hr prior to measuring the absorbance at 595 nm (Varioskan® Flash, Thermo-Fisher Scientific). […] Relative EC50 values were determined from concentration-inhibition curves using XL-Fit (idbs, Guildford, UK).

For another data set, the system named is PBMCs. Briefly: Cytostim-induced cytokine production in PBMCs. It is filed as cell-based. The note with it: Homo sapiens, PBMC. The method, then: As a means of assessing PI3Kδ-dependent cell function, cytostim-induced IL-4, IL-5, IL-13 and IFNγ production in PBMCs were evaluated by Luminex multiplex assay. All healthy volunteers were recruited by Quintiles Limited (London, UK), and blood samples were delivered to Respivert Ltd. This study was approved by the local Ethics Committee, and all subjects gave written informed consent.
PBMC suspensions (200 μL; 2×10^6 cells/mL) were added to a 96-well plate. Cells were treated with either test compounds in neat DMSO or DMSO as vehicle (2 μL) and incubated at RT for 1 hr. Cytostim (Miltentyi Biotec, Surrey, UK) was introduced at a ratio of 1:50 and the cells were incubated for 20 hr (37° C.; 5% CO2). Plates were spun at 500×g for 5 min and the supernatant collected. A high sensitivity cytokine magnetic bead kit (#HSCYTMAG-60SK, Millipore, Watford, UK) was used to measure the four analytes (IL-4, IL-5, IL-13 and IFNγ) by Luminex as follows: The magnetic antibody beads were multiplexed and incubated in a 96-well plate with standard, media only or sample (50 μL) overnight with shaking at 4° C. After washing twice with Millipore wash buffer provided in the kit using a magnetic plate washer, the beads were incubated for 1 hr with detection antibody (50 μL) with shaking at RT. A streptavidin-phycoerythrin solution provided in the kit was added for 30 min with shaking at RT. After washing, the beads were re-suspended in sheath fluid (150 μL) and analysed immediately. The Luminex system was set up to count 50 beads and the amount of each analyte in the supernatant was calculated against a standard curve. The IC50 values were determined from concentration-inhibition curves using XL-Fit (IDBS, Guildford, UK)

The subject of another data set is d-U937 cells. Briefly: MTT assay, cell viability. Type of data set: cell-based, human. The note with it: 10 μg/mL. The method, then: PMA-differentiated U937 cells were pre-incubated with test compound (10 μg/mL) or vehicle for 4 hr in 5% FCS or 10% FCS for 24 hr. The supernatant was replaced with new media (200 μL) and MTT stock solution (10 μL, 5 mg/mL) was added to each well. After 1 hr incubation, the media were removed, 200 μL of DMSO was added to each well and the plates were shaken lightly for 1 hr prior to reading the absorbance at 550 nm. The percentage loss of cell viability was calculated for each well relative to vehicle (0.5% DMSO)-treatment.

Read-outs that look alike come from different tables or passages of the source.

These results are taken from patent US20170334919A1, “2-((4-AMINO-3-(3-FLUORO-5-HYDROXYPHENYL)-1H-PYRAZOLO[3,4-D]PYRIMIDIN-1 -YL)METHYL)-3-(2-(TRIFLUORO-MET HYL)BENZYL)QUINAZOLIN-4(3H)-ONE DERIVATIVES AND THEIR USE AS PHOSPHOINOSITIDE 3-KINASE INHIBITORS” (RESPIVERT LTD., priority 2013, published 2017).

As to `C[C@@H]1C[C@H]2[C@@H]3CCC4=CC(=O)C=C[C@]4(C)[C@@]3(F)[C@@H](O)C[C@]2(C)[C@@]1(O)C(=O)CO` [dexamethasone, reference compound], the “activity in the cigarette smoke model” value in data set [1] (0.3-10 mg/kg, p.o.) was “inactive”.

A word on the IC50: it is the concentration needed to halve the response being measured. Turning to `Nc1ncnc2c1c(-c1cc(O)cc(F)c1)nn2Cc1nc2cccc(C#CCOCCOCCO)c2c(=O)n1Cc1ccccc1C(F)(F)F` [Compound (Ia), 2-((4-Amino-3-(3-fluoro-5-hydroxyphenyl)-1H-pyrazolo[3,4-d]pyrimidin-1-yl)methyl)-5-(3-(2-(2-hydroxyethoxy)ethoxy)prop-1-yn-1-yl)-3-(2-(trifluoromethyl)benzyl)quinazolin-4(3H)-one], the EC50 in the data set on IFNγ-primed U937 cells was 143 nM; in the data set on THP1 cells, more than 14200 nM. Besides, the IC50 in the data set with PBMCs (read-out: IC50, Cytostim-induced IFNγ in PBMCs) was 60.8 nM; in the data set with PBMCs (read-out: IC50, Cytostim-induced IL-4 in PBMCs) it was 674 nM; in the data set with PBMCs (read-out: IC50, Cytostim-induced IL-5 in PBMCs), 14.5 nM; in the data set on PBMCs (read-out: IC50, Cytostim-induced IL-13 in PBMCs), 6.1 nM. In the data set with d-U937 cells (4 hr), the “Cell Viability MTT Assay in d-U937 cells at 4 hr” value was “−ve (−ve indicates a value of <30% inhibition at 10 μg/mL)”. Also, the “Cell Viability MTT Assay in d-U937 cells at 24 hr” value with d-U937 cells (24 hr) is “−ve (−ve indicates a value of <30% inhibition at 10 μg/mL)”.

`CCC(=O)O[C@]1(C(=O)SCF)[C@H](C)C[C@H]2[C@@H]3C[C@H](F)C4=CC(=O)C=C[C@]4(C)[C@@]3(F)[C@@H](O)C[C@@]21C` [fluticasone propionate, reference compound]: the “effect as monotherapy in the cigarette smoke model” value in data set [1] (dose used for co-administration with compound (I)) is recorded as “lacks any significant effect as monotherapy”.
